Measurements from PubChem BioAssay (NCI).
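Values below derive from 48-hour exposures of cells grown in 96-well plates, with endpoints linearly interpolated between the two concentrations bracketing the appropriate inhibition level. The concentration for 50% growth inhibition is given as GI50. TGI denotes the concentration required for complete inhibition of growth.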

Key:
Assay in all cases: NCI tumour cell line growth inhibition, 48 h
[1] = tested on: BT-549 breast
[2] = tested on: TK-10 renal
[3] = tested on: NCI-H460 lung
[4] = tested on: A549 NSCLC
[5] = tested on: NCI-H522 lung
[6] = tested on: MCF7 breast
[7] = tested on: LOX IMVI melanoma
[8] = tested on: SF-295 CNS
[9] = tested on: DLD-1 colon
[10] = tested on: KM20L2 colon
[11] = tested on: DMS 114 small cell lung
[12] = tested on: LXFL 529 NSCLC

Row | Compound | GI50 [1] [µM] | TGI [1] [µM] | GI50 [2] [µM] | TGI [2] [µM] | GI50 [3] [µM] | TGI [3] [µM] | GI50 [4] [µM] | TGI [4] [µM] | GI50 [5] [µM] | TGI [5] [µM] | GI50 [6] [µM] | TGI [6] [µM] | GI50 [7] [µM] | TGI [7] [µM] | GI50 [8] [µM] | TGI [8] [µM] | TGI [9] [µM] | TGI [10] [µM] | TGI [11] [µM] | TGI [12] [µM]
1 | C=C(C)[C@@H]1CC[C@]2(C(=O)O)CC[C@]3(C)[C@H](CC[C@@H]4[C@@]5(C)C/C(=C/c6cccc(I)c6)C(=O)C(C)(C)[C@@H]5CC[C@]43C)[C@@H]12 | 2.2 | 6.75 | 3.25 | 20.6 | 1.9 | 4.27 | 1.49 | 6.31 | 2.1 | 6.94 | 2.64 | 10.5 | 1.72 | 3.58 | 2.91 | 12.6 | – | – | – | –
2 | O=C1CCCC(O)=C1SC1=C(O)CCCC1=O | – | – | – | > 100 | – | – | – | > 100 | – | > 100 | – | – | – | > 100 | – | > 100 | > 100 | – | – | –
3 | C[C@@H](Oc1cc(-n2cnc3ccc(OCC4CCN(C)CC4)cc32)sc1C(N)=O)c1ccccc1Cl | 0.397 | 3.58 | 0.583 | 5.13 | 0.0846 | 3.04 | 0.0919 | 2.93 | 0.0382 | 0.147 | 0.0123 | 3.68 | 0.0926 | 3.6 | 0.0853 | 3.31 | – | – | – | –
4 | CC(C)=CC(=O)N[C@@H]1CC2CCC3C(CC[C@@]4(C)C3CC[C@@H]4C(C)N(C)C)[C@@]2(C)C[C@@H]1O (some centres undefined) | 7.57 | 29.3 | 14.1 | 32.3 | 2.53 | 8.88 | 7.27 | 33.8 | 7.47 | 31.3 | 2.95 | 21.1 | 1.54 | 3.97 | 3.45 | 16.6 | – | – | – | –
5 | O=C(Oc1ccc2c(-c3ccccc3)c(C(=O)Nc3ccc(Cl)cc3)c(=O)oc2c1)c1ccccc1 | – | – | – | > 100 | – | > 100 | – | > 100 | – | > 100 | – | – | – | > 100 | – | > 100 | > 100 | > 100 | > 100 | –
6 | CN(C)c1ccc2cc3ccc(N(C)C)cc3nc2c1 | – | 22.1 | – | 9.21 | – | 1.99 | – | 7.49 | – | 7.56 | – | 11.5 | – | 3.63 | – | 15.2 | – | – | – | –
7 | NC(CCc1ncc(-c2ccccc2)s1)C(=O)O (centres undefined) | – | – | – | > 100 | – | > 100 | – | > 100 | – | > 100 | – | – | – | > 100 | – | > 100 | > 100 | – | > 100 | > 100
8 | CN(C)CC1CCCCCC(Br)C1=O (centres undefined) | – | 26.4 | – | 17.7 | – | 49.6 | – | > 100 | – | 8.72 | – | 12.7 | – | 29.8 | – | > 100 | – | – | – | –
9 | COc1ccc2c(c1)C(=O)c1c-2c(N2CCN(C(=O)CNCCN(C)C)CC2)nc2ccccc12 | 1.75 | 3.43 | 4.15 | 17.8 | 1.17 | 2.55 | 2.22 | 10.1 | 1.76 | 3.44 | 1.62 | 3.11 | 1.71 | 3.33 | 2.48 | 5.34 | – | – | – | –
